Data: EP1176134A1, “LIGANDS OF NUCLEAR RECEPTORS PPAR'S” (Nuclear Receptor Research Limited, priority 1999, dated 2000)

Tests used:
[1] = tested on: PPARγ; assay: transfer (reporter) gene activity assay in transfected COS-1 cells, PPARγ; format: cell-based; conditions: luciferase reporter, 20 hours
Method: Transfection was performed by a standard procedure using a LipofectAMINE reagent from Life Technologies. A 35 mm Petri dish containing 1 x 10^5 cells dispersed in 2 ml of Dulbecco's minimum medium (DMEM) containing 10% fetal bovine serum was incubated in a CO2 incubator for 17 hours. Then, the medium was removed and cells adhered to the Petri dish were washed with phosphate buffered physiological saline (PBS), after which transfection was performed using a LipofectAMINE reagent. That is, […] of a minimum serum medium OptiMEM (Life Technologies) containing […] of a plasmid bearing the luciferase gene whose expression is controlled by PPAR-responsive elements, […] of a PPAR expression plasmid and 2 mg of a plasmid bearing the β-galactosidase gene for monitoring transfection efficiency was preliminarily mixed with […] of OptiMEM containing 50 ml of LipofectAMINE dissolved therein, and the mixed solution was maintained at room temperature for 15 minutes. A Petri dish containing a mixture of 100 ml of this mixed solution and 400 ml of OptiMEM was incubated in a CO2 incubator at 37°C for 3 hours. The transfection medium was aspirated off from the Petri dish, which was supplied with DMEM containing 10% serum treated with activated carbon and a test compound and incubated at 37°C for 20 hours. […] The medium also contains a solvent for test compounds dimethyl sulfoxide (final concentration 0.1%).
(§1) After the medium in the Petri dish was aspirated off, […] of a lysing solution for cultured cells (25 mM Tris phosphate buffer (pH 7.8), 2 mM 1,2-diaminocyclo-hexane-N, N,N',N'-tetraacetate, 10% glycerol, 1% Triton X-100) was added and cells were scraped with rubber policeman. Cells were completely disrupted by freezing and thawing and then centrifuged at 4°C (15,000 rpm, 2 min), and the supernatants were used as test samples. […] The β-galactosidase for monitoring transfection efficiency was measured for fluorescence in a luminometer using Luminescent β-galactosidase detection kit II (Clontech). […]

[2] = tested on: rat hypertension model; assay: prevention of aneurysms in DOCA/saline one-kidney rat hypertension model; format: in vivo, male Wistar rats
Method: Compounds of the present invention show the effect of preventing periarteritis nodosa and aneurysms. In order to evaluate the effect of preventing aneurysms, a quantitatively assayable rat hypertension model was used so that aneurysms formed in mesenteric arteries were measured and statistically processed to determine the effect. The membrane was removed with forceps from isolated mesenterium and the remaining arterioles were fixed with formalin and then fat-stained. The number of arterioles and the number of aneurysms were counted in triplicate to calculate the average number of aneurysms per arteriole. As a hypertension model, rats with one kidney extracted to decrease renal function were given 0.9% saline as drinking water having a slightly higher osmosis than plasma and subcutaneously received 10 mg/kg of a mineral corticoid deoxycorticosteron acetate (DOCA) weekly. The left kidney was extracted from male Wistar rats (12 animals) under anesthetization. The rats deprived of kidney were randomly divided into two groups (n = 6) after a period of recovery for a week. One of the two groups was a control group and the other received compound 1. […] The experimental period was 7 weeks, during which feed intake, drinking water intake, urine volume, body weight and blood pressure were measured every 3 days from the start of experiments. […]

[3] = tested on: streptozotocin-induced diabetes; assay: streptozotocin-induced diabetes in rats; format: in vivo, male Wistar rats; conditions: 100 mg/kg orally once daily; for Body weight / Drinking water intake / Feed intake / Urinary sugar excretion / Urine volume: n=8
Method: Streptozotocin (50 mg/kg) was injected into the tail vein of male Wistar rats weighing about 250 g to prepare an insulin deficiency diabetes model. Compound 1 suspended in a gum arabic solution was orally administered at 100 mg/kg once daily, starting immediately after administration of streptozotocin. The animals were housed in a urine-collecting cage for 24 hours on days 7 and 14 to collect urine for 24 hours. […] However, weight gain was 80 g/week in the healthy group in contrast with only 18 g/week in the diabetes control group. […] This means that administration of compound 1 improved metabolism to greatly reduce urinary sugar excretion.

[4] = tested on: NOD mice; assay: prevention of onset of type I diabetes in NOD mice; format: in vivo, female NOD mice; conditions: 10 animals
Method: (§2) Each group consists of 10 animals.
The mice were bred for 24 weeks, during which they were tested for urinary sugar excretion using an urinary sugar detection tape on Monday and Friday (Fig. 3).

[5] = tested on: Ehrlich ascites tumor cells; assay: hyperlipidemia (cachexia marker) in Ehrlich ascites tumor bearing mice; format: in vivo, male ddY-strain mice; conditions: for Body weight / Serum neutral Serum neutral fat: day 8, mean±SD, n=8
Source text: In these experiments, serum neutral fat was selected as an indication of cachexia to serve as an auxiliary marker for knowing dynamics of TNFα that is difficult to quantitize, because it is difficult to exactly measure blood TNFα and it is easier to measure serum neutral fat than blood TNFα. Forty male ddY-strain mice at 5 weeks of age were randomly divided into 5 groups (n = 8), among which 4 groups were intraperitoneally implanted with 2 x 10^6 Ehrlich ascites tumor cells. The group implanted with no tumor cells was a healthy control group. From 24 hours after implantation of tumor cells, 3 groups intraperitoneally received 100-400 mg/kg of compound 1, while the other group received a solvent 0.1% Tween 80 (0.2 ml) alone free from compound 1. On day 8 after implantation of tumor cells, blood was collected from the heart of tumor bearing mice to assay neutral fat in separated serum and detect blood TNFα by immunoelectrophoresis.

[6] = tested on: serum lipid; conditions: cited from earlier work
[7] = tested on: DOCA hypertension rats; conditions: orally administered to DOCA hypertension rats; cited from earlier work
[8] = tested on: hereditary obese and diabetic mice C57BL/ksj db/db; assay: polydipsia/polyuria and urinary sugar excretion in db/db mice fed compound in diet; format: in vivo
Method: Ten male db/db mice at 30-32 weeks of age were randomly divided into two groups (n = 5), ie, a control group and compound 17 group. The animals were allowed free access to diet and drinking water. The diet was mouse II rat standard food CE-2 powder from Clea Japan, which was pelletized after a solution of compound 17 in acetone was applied and acetone was evaporated by air-drying. Compound 17 was added in an amount of 0.1% of the diet. A control diet was also pelletized after the same amount of acetone was applied.
Both groups received the control diet for first 7 days to test feed intake, urine volume, urinary sugar level and urinary sugar excretion level. During the following 5 days, the treatment group received the diet containing 0.1% compound 17. The treatment group was bred with the control diet again for further 4 days and then bred with the diet containing 0.1% compound 17 again for 5 days on […]. As db/db mice individually bred in metabolic cages show wide variation in feed and drinking water intakes, 5 animals were housed in a rat metabolic cage and the values obtained in each cage were divided by 5 and shown in Fig. 1. […] Urinary sugar excretion level is 50% or less as compared with the control period even 24 hours after administration is stopped, showing that compound 17 has a carry-over effect.

[9] = tested on: db/db mice; assay: blood glucose and urinary sugar excretion in db/db mice; format: in vivo; conditions: 60 mg/kg orally once daily, Fig. 2
Method: Blood was collected from the tail vein of ten db/db mice at 12 weeks of age 2 days before the start of experiments, and the animals were divided into two groups each having an average blood glucose level of 720-740 mg/dl. One group was a control group, while the other group orally received compound 25 at 60 mg/kg once daily. […] SA solid diamond denotes the control group, solid triangle denotes the: group treated with compound 1 at 25 mg/kg, open square denotes the: group treated with compound 1 at 50 mg/kg, and cross denotes the: group treated with compound 25 at 50 mg mg/kg. Each group consists of 10 animals.
Blood was collected from the tail vein of ten db/db mice at 12 weeks of age, and the animals were divided into two groups, ie, a control group and a compound 25 group, each having an average blood glucose level of about 700 mg/dl and housed in urine-collecting cages. A small amount of blood was collected from the tail vein on days 1, 2, 3, 5, 7 and 10 from the start of experiments to determine blood glucose. Urine was collected for 24 hours at the same intervals to determine urinary sugar excretion level by the oxygen method.

[10] = tested on: immobilized PPARγ receptor; assay: Surface Plasmon Resonance sensor (BIAcore) binding test; conditions: BIAcore sensorgram, Fig. 4
Source text: as §2
A Surface Plasmon Resonance sensor (BIAcore column) was used to examine whether or not compounds of the present invention bind immobilized PPARγ receptor.

[11] = tested on: PPARα; assay: transfer (reporter) gene activity assay in transfected COS-1 cells, PPARα; format: cell-based; conditions: luciferase reporter, 20 hours
Method: Transfection was performed by a standard procedure using a LipofectAMINE reagent from Life Technologies. A 35 mm Petri dish containing 1 x 10^5 cells dispersed in 2 ml of Dulbecco's minimum medium (DMEM) containing 10% fetal bovine serum was incubated in a CO2 incubator for 17 hours. Then, the medium was removed and cells adhered to the Petri dish were washed with phosphate buffered physiological saline (PBS), after which transfection was performed using a LipofectAMINE reagent. […]
as §1, with “policeman.” for “policeman. Cells were completely disrupted by freezing and thawing and then centrifuged at 4°C (15,000 rpm, 2 min), and the supernatants were used as test samples.”

[12] = 50 mg/kg intraperitoneally twice weekly
[13] = Dose 100 mg/kg intraperitoneally
[14] = Dose 200 mg/kg intraperitoneally
[15] = Dose 400 mg/kg intraperitoneally
[16] = groups treated with 100-400 mg/kg
[17] = diet containing 0.1% compound, Fig. 1

SMILES: C/C(=C\Cc1c(O)c(Cl)c(C)c(C=O)c1O)CC/C=C(\C)C1CC(=O)C(C)(C)O1 (centres unmarked) [Compound 1, Ascofuranone]
- Activation of receptors PPARγ [1]: +++ (Activation peak appears at 10^-6-10^-5M.)
- effect of suppressing pressure rise (blood pressure) ([2]; orally 100 mg/kg from week 3, compared with control group): any significant effect of suppressing pressure rise was not observed
- aneurysms (mean ± SE) per mesenteric artery ([2]; orally 100 mg/kg from week 3, dissected at week 7, n = 6): 0.51 ± 0.37 aneurysms per mesenteric arter
- weight gain [3]: 30 g/week
- Body weight ([3]; Day 7): 307.7±4.8 g/rat
- Drinking water intake ([3]; Day 7): 99.9±13.0 ml/rat/day
- Feed intake ([3]; Day 7): 32.9±1.9 g/rat
- Urinary sugar excretion ([3]; Day 7): 5.39±0.55 g/rat/day
- Urine volume ([3]; Day 7): 74.6±6.4 ml/rat/day
- Body weight ([3]; Day 14): 318.3±6.8 g/rat
- Drinking water intake ([3]; Day 14): 106.9±18.0 ml/rat/day
- Feed intake ([3]; Day 14): 32.6±2.9 g/rat
- Urinary sugar excretion ([3]; Day 14): 5.78±1.09 g/rat/day
- Urine volume ([3]; Day 14): 79.7±12.5 ml/rat/day
- drinking water intake as compared with the diabetes control group ([3]; day 7): 41.4%
- feed intake decrease as compared with the diabetes control group ([3]; day 7): 14.3%
- drinking water intake as compared with the diabetes control group ([3]; day 14): 43.6%
- feed intake decrease as compared with the diabetes control group ([3]; day 14): 23.3%
- incidence of type I diabetes at week 24 ([4]; 25 mg/kg intraperitoneally twice weekly): 30%
- incidence of type I diabetes at week 24 [4, 12]: 10%
- Body weight [5, 13]: 38.0±1.0 g/mouse
- Serum neutral Serum neutral fat [5, 13]: 258.2 ± 53.2 mg/dL
- Body weight [5, 14]: 36.7±0.7 g/mouse
- Serum neutral Serum neutral fat [5, 14]: 185.1 ± 26.2 mg/dL
- Body weight [5, 15]: 31.3±1.1 g/mouse
- Serum neutral Serum neutral fat [5, 15]: 99.1 ± 18.3 mg/dL
- blood TNFα [5, 16]: downward tendency
- blood glucose level [5, 16]: significant increase
- increase of serum neutral fat [5, 16]: dose-dependently suppressed
- toxicity ([6]; orally administered to rodents): very low toxicity
- effect on serum lipid ([6]; orally administered, rats bred with a standard diet or a high-fat diet): lowering serum lipid
- indications of cardiovascular diseases [7]: improves indications of cardiovascular diseases
- pressure rise [7]: does not suppress pressure rise

SMILES: COc1c(C=O)c(C)c(Cl)c(O)c1C/C=C(\C)CC/C=C(\C)C1CC(=O)C(C)(C)O1 (centres unmarked) [Compound 7, 2-O-methyl AF]
- Activation of receptors PPARγ [1]: +++ (Activation peak appears at 10^-6-10^-5M.)

SMILES: COc1c(Cl)c(C)c(C=O)c(O)c1C/C=C(C)/C=C/[C@@]1(C)[C@H](C)CCC(=O)[C@@H]1C [Compound 17, 4-O-MeAS]
- Urinary sugar excretion level as compared with the control period ([8]; 24 hours after administration is stopped, 0.1% in diet): ≤ 50%
- Urine volume [8, 17]: sharply decrease
- urinary sugar excretion level [8, 17]: sharply decrease
- urinary sugar level [8, 17]: sharply decrease

SMILES: COc1c(C=O)c(C)c(Cl)c(O)c1C/C=C(C)/C=C/C1(C)C(C)CCC(=O)C1C (centres unmarked) [Compound 21, 2-O-methylascochlorin]
- Activation of receptors PPARγ [1]: ++ (Activation peak appears at 10^-5-10^-4M.)

SMILES: CC(/C=C/C1(C)C(C)CCC(=O)C1C)=C\Cc1c(O)c(C=O)c(C)c(Cl)c1OCC(=O)O (centres unmarked) [Compound 25]
- Activation of receptors PPARγ [1]: +++ (Activation peak appears at 10^-6-10^-5M.)
- blood glucose loss ([9]; day 7): over 30%
- urinary sugar ([9]; day following the start of administration): decreased to a half
- blood glucose ([9]; from day 3 of administration): significantly decreased
- urinary sugar excretion level loss ([9]; on and after day 3): over 90%
- incidence of type I diabetes at week 24 [4, 12]: 10%

SMILES: CC(/C=C/C1(C)C(C)CCC(=O)C1C)=C\Cc1c(O)c(C=O)c(C)c(Cl)c1OC(=O)c1cccnc1 (centres unmarked) [Compound 26]
- Activation of receptors PPARγ [1]: ++ (Activation peak appears at 10^-5-10^-4M.)

SMILES: COc1c(C=O)c(C)c(Cl)c(OCC(=O)O)c1C/C=C(C)/C=C/C1(C)C(C)CCC(=O)C1C (centres unmarked) [Compound 27, 4-O-Carboxymethyl-2-O-methylascochlorin]
- Activation of receptors PPARγ [1]: ++ (Activation peak appears at 10^-5-10^-4M.)
- binding to immobilized PPARγ receptor (SPR signal) [10]: clearly generates a signal

SMILES: CC(/C=C/C1(C)C(C)CCC(=O)C1C)=C\Cc1c(O)c(C=O)c(C)c(Cl)c1OC(=O)CCCC(=O)O (centres unmarked) [Compound 29, 4-O-(4-Carboxybutanoyl)ascochlorin]
- Activation of receptors PPARγ [1]: +++ (Activation peak appears at 10^-6-10^-5M.)

SMILES: C/C(=C\Cc1c(O)c(Cl)c(C)c(C=O)c1O)CC/C=C(\C)C1=CC(=O)C(C)(C)O1 [Dehydroascofuranone]
- Activation of receptors PPARα [11]: ++ (Activation peak appears at 10^-5-10^-4M.)
